2 compounds from PMC6013238, “Development of novel NEMO-binding domain mimetics for inhibiting IKK/NF-κB activation” (PLoS Biology, 2018) can be followed below.

One data set relates to p-IκBα and COX-2. As to the kind of experiment: LPS-induced acute inflammation, western blot of p-IκBα and COX-2 in lung and liver. It is filed as in vivo, mouse. Conditions: acute treatment, LPS 10 mg/kg. Here is the method: Fig 6 Newly identified NBD mimetics suppress LPS-induced acute inflammation in vivo. (A) The bioavailability property of SR12460, SR12343, SR12454, and SR11481. Concentrations of NBD mimetics were determined in plasma, brain, muscle, spleen, and liver 2 h post a single i.p. injection of 10 mg/kg of drugs; n = 3 per group. (B) Shown is the model to induce LPS-mediated acute inflammation and the treatment regimen with NBD mimetics. Mouse image via http://www.clker.com/clipart-mice-blank.html (copyright-free). (C) NBD mimetics suppressed LPS-induced acute inflammation in liver and lung by down-regulating NF-κB target gene expression. Vehicle, SR12343, SR12460, and 8K-NBD peptide were dosed at 10 mg/kg 30 min prior to the LPS treatment. Acute inflammation was induced by i.p. injection of 10 mg/kg LPS. Lung and liver were collected 2–4 h post injection, and mRNA was extracted for qRT-PCR analysis. (D, E) Western blot analysis was performed to probe for the expression of p-IκBα and COX-2 at protein level in liver and lung tissues. (F) Serum levels of IL-6 were determine by ELISA. n = 3–8 each group. *P < 0.05, **P < 0.01. […] COX-2, cyclooxygenase 2; IL-6, interleukin 6; i.p., intraperitoneal; LPS, lipopolysaccharide; NBD, NEMO-binding domain; n.d., nondetectable; NEMO, NF-κB essential modulator; NF-κB, nuclear factor κB; qRT-PCR, quantitative real-time polymerase chain reaction. […]

The test system of another data set is HEK293 cells. As to conditions: Fig 2D; 100 μM, 24 h. The protocol:
(A) HEK293 cells stably expressing NF-κB luciferase reporter were pretreated with indicated small molecules at 100 μM for 30 min, followed by stimulation with TNF-α (10 ng/ml) for 3 h. Luciferase activity was normalized to untreated stimulated control cells. […] (B) The dose-dependent response of ZINC12909780 was tested by NF-κB luciferase assay in HEK293 cells. Three independent experiments were performed, and data shown represent mean +/− SD. […] (D) HEK293 cells were cultured in the presence of 100 μM of indicated derivatives for 24 h, and cell survival was determined by MTT assay. Cell viability was calculated by normalizing to untreated cells. (E) Dose-dependent inhibitory effects were determined for ZINC5 at 0, 25, 50, and 100 μM by using NF-κB luciferase assay. (F) HEK293 were cultivated in the presence of ZINC5 at listed concentrations for 24 h, and cell survival was assessed by MTT assay. Data represent the mean +/− SD from 4–5 independent experiments. *P < 0.05; **P < 0.01; ***P < 0.001. Underlying data can be found in S1 Data. HEK293, human embryonic kidney 293 cells; MTT, 3-(4,5-dimethylthiazol-2-yl)-2,5-dephenyltetrazolium bromide colormetric assay for assessing cell metabolic activity; NF-κB, nuclear factor κB; TNF-α; tumor necrosis factor α; SD, standard deviation.
HEK293 cells were grown in a 96-well plate at 3 × 10^4 cells/well in triplicate and treated with DMSO or listed small molecules at indicated concentrations for 24 h. Cell survival was determined by adding 20 μl of 5 mg/ml MTT (thiazolyl blue tetrazolium bromide) to each well, followed by incubation in 37 °C for 3 h. Media were removed, and purple formazan was dissolved in 100 uL of DMSO. Absorbance was measured at 590 nm on a microplate reader (PerkinElmer, Waltham, MA). Cell viability was calculated by normalizing values to untreated controls.

Molecules are shown by their SMILES. Several values for one entry are separate records, joined by “and”; a condition that tells them apart may be missing. Equal values may be shown once.

As for `O=C(CNc1ccc(Cl)cn1)NCCc1cccc(Br)c1` [SR12343], in the data set with p-IκBα and COX-2, the “Phosphorylation of IκBα and levels of COX-2 in lung and liver (western blot)” value is “reduced”.
Regarding `O=C(COC(=O)Cc1ccccc1F)Nc1ccc(Cl)cn1` [ZINC5], the “Cell viability normalized to untreated cells (MTT)” value in the data set with HEK293 cells was 95 and 80 and 84 and 81.
